From patent US11072606B2, “Compositions and methods for treating diseases and conditions” (University of Pittsburgh—Of the Commonwealth System of …, priority 2014, dated 2021)
In brackets after ≈: the same amount, converted by molar mass.

How the values were obtained:
[1] = U937 monocyte cell death, Trypan blue staining; assay type: cell-based; settings: human; U937 monocytes, compound for 16 hours, Trypan blue dead cells; read-out: LC50
Description: U937 monocytes (0.2 ml at 0.3×10^6/ml) were treated with each compound at different concentrations for 16 hours. The cells were then stained with Trypan blue to identify dead cells, and to calculate the LC50. Combined values were used to generate therapeutic indexes (TI)=LC50/IC50.

TNFα cytokine release = test: LPS-induced TNFα cytokine release in PBMC (ELISA); assay type: cell-based; settings: LPS 50 ng/ml for 16 hours concurrently with compound, TNFα by ELISA
Description: Peripheral blood mononuclear cells (PBMC) (0.2 ml at 0.3×10^6/ml) were treated with lipopolysaccharide (LPS) (50 ng/ml) for 16 hours concurrently with each compound tested at different concentrations. TNFα cytokine release was monitored by ELISA. These concentrations were used to calculate the IC50.

[2] = tested on: LPS induced lung inflammation; test: LPS induced lung inflammation in mice (FIG. 5); assay type: in vivo; settings: compound P.O., LPS 3 mg/kg i.t., 18 h, lavage protein, cell counts, cytokine secretion, *P<0.05 versus Vehicle
Description: BC-1421 was administered to mice though P.O., and mice were then immediately challenged with LPS (3 mg/kg, i.t.) for an additional 18 h. Mice were then euthanized and lungs were lavaged with saline, harvested, and then homogenized. Lavage protein, cell counts and cytokine secretion were measured in. The data represent n=4-5 mice/group, *P<0.05 versus Vehicle.

Structure (SMILES) | CC50 at 16 h [1] [µg/mL] | IC50 (TNFα cytokine release) [µg/mL] | LPS induced lung inflammation [2]
CC(C)(NCc1ccc(-c2ncccn2)cc1)C(C)(C)NCc1ccc(-c2ncccn2)cc1 [Compound 207] | > 100 | 2 to 20 (≈ 4.42 to 44.2 µM) | 
C[C@H](CNCc1ccc(-c2ncccn2)cc1)NCc1ccc(-c2ncccn2)cc1 [Compound 205] | > 100 | < 2 | 
c1nc(N2CCCC2)ncc1CNCCCCNCc1cnc(N2CCCC2)nc1 [Compound 210] | 1 to 10 (≈ 2.44 to 24.4 µM) | < 2 | 
c1ccc(-c2ncc(CNCCNCc3cnc(-c4ccccn4)nc3)cn2)nc1 [Compound 209] | 10 to 100 (≈ 25.1 to 251 µM) | 2 to 20 (≈ 5.02 to 50.2 µM) | 
c1ncn(-c2ccc(CNCCNCc3ccc(-n4cncn4)cc3)cc2)n1 [Compound 203] | > 100 | 2 to 20 (≈ 5.34 to 53.4 µM) | 
c1nnc(-c2ccc(CNCCNCc3ccc(-c4nnco4)cc3)cc2)o1 [Compound 202] | > 100 | < 2 | 
Fc1cc(CNCCNCc2ccc(-c3ncccn3)c(F)c2)ccc1-c1ncccn1 [BC-1421, N^1,N^2-bis(3-fluoro-4-(pyrimidin-2-yl)benzyl)ethane-1,2-diamine] |  |  | reduces LPS induced lung inflammation
c1ncc(-c2ccc(CNCCNCc3ccc(-c4cncnc4)cc3)cc2)cn1 [Compound 201] | > 100 | < 2 | 
C[C@@H](CNCc1ccc(-c2ncccn2)cc1)NCc1ccc(-c2ncccn2)cc1 [Compound 204] | > 100 | < 2 | 
c1ccc(-c2ncc(CNCCNCc3cnc(-c4ccccc4)nc3)cn2)cc1 [Compound 208] | 10 to 100 (≈ 25.2 to 252 µM) | 2 to 20 (≈ 5.04 to 50.4 µM) | 
CC(C)(CNCc1ccc(-c2ncccn2)cc1)NCc1ccc(-c2ncccn2)cc1 [Compound 206] | > 100 | < 2 | 
